pEC50, pIC50: −log10 of the molar value. Read-outs that look alike come from different tables or passages of the source.
What was measured:
[1] = biological target: T1, PRC2 containing wt EZH2 (Homo sapiens (Human), UniProt Q15910); assay: EZH2 residence time assay (100-fold dilution of enzyme-inhibitor complex); type: biochemical
Method: EZH2 residence time assay: Compound residence times were assessed by monitoring the recovery of enzyme activity following a 100-fold dilution of pre-formed enzyme-inhibitor complex (dilution reaction), and comparing it to the activity of an undiluted control with the same final concentrations of all reagents (control reaction). Enzyme activity was measured by incorporation of ^3H-SAM into a biotinylated H3 peptide. For the dilution reaction, 20 nM PRC2 containing wt EZH2 (pentameric complex prepared in-house) was pre-incubated with 1 μM activating peptide (H2N-RKQLATKAAR(Kme3)SAPATGGVKKP-amide) and compound at 600 times its Ki for 2 h in 40 μL of buffer (50 mM Tris pH 8.5, 4 mM DTT, 1 mM MgCl2, 0.07 mM Brij-35, and 0.1 mg/mL BSA), then diluted 100-fold and the reaction initiated by transferring 1.4 μL to a 138.6 μL volume of buffer containing 1 μM activating peptide, 5.05 μM substrate peptide (H2N-[…]-NTPEGbiot), 1.01 μM SAM, and 1.01 μM ^3H-SAM. […] Reactions were quenched at various time points spanning up to 10 hours, by transferring 8μL aliquots from the reaction vessel to a plate containing 8μL per well of STOP solution (50 mM Tris pH 8.5, 200 mM EDTA, 2 mM SAH). After the last time point, 12 μL of the quenched solutions were transferred to a streptavidin coated FlashPlate (PerkinElmer) containing 40 μL per well of STOP solution, incubated 1-8 h, washed, and read in a TopCount plate reader (PerkinElmer).
A custom script was used to fit control reaction progress data to a straight line and dilution reaction progress data:
[formula] Where y is the product formed, t is the reaction time, vi is the initial velocity, vs is the steady state velocity, and kobs is the rate constant for the transition from the initial velocity phase of the curve to the steady state velocity phase of the curve. In fitting the dilution reaction progress data, vs was constrained to the slope of the line fitted to the control reaction progress data. The fitted value of kobs was then transformed into residence time:
[formula] Where τ is residence time, Ki is the inhibition constant, [EI] is the calculated equilibrium concentration of enzyme-inhibitor complex, [E] is the calculated equilibrium concentration of free enzyme, and [I] is the calculated equilibrium concentration of free inhibitor.

[2] = test system: H3K27me3 in Hela cells; assay: H3K27me3 Alpha Hela Assay (AlphaLISA); type: cell-based; conditions: Homo sapiens, HeLa, 72 h
Method: H3K27me3 Alpha Hela Assay (AlphaLISA). Ten different doses of each test compound (in a series of 3-fold dilutions) were plated in duplicate 384-well tissue culture treated plates (Catalog #6007680; Perkin Elmer, Waltham, Mass.). Hela cells grown in culture were trypsinized and counted using a Countess® cell counter (Catalog #C10281; Life Technologies, Grand Island, N.Y.). Cell were diluted to 67,000 cells per mL in10% DMEM (Catalog #10569-010 Life Technologies, Grand Island, N.Y.) and 15 μL (1,000 cells) were plated into each well using the Biotek MicroFlo™ Select Dispenser (BioTek Instruments, Inc. Vermont, USA),) of the 384-well plate. Plates were incubated at 37° C./5% CO2 for 72 hrs. One of the duplicate plates was processed for HeLa assay and the other for viability. 5 μL of Cell-Histone Lysis buffer (1×) (Catalog #AL009F1 Perkin Elmer; Waltham, Mass.) per well was added to the plate processed for AlphaLISA and the plate was incubated at RT for 30 minutes on a plate shaker with low speed (Model# 4625-Q Thermo Scientific; Waltham, Mass.). Then, 10 μL per well Histone Extraction buffer (catalog #AL009F2; Perkin Elmer; Waltham, Mass.) was added and the plate further incubated at RT for 20 min on plate shaker with low speed. Next, 10 μL of 5× mix of anti-K27me3 acceptor beads plus Biotinylated anti-Histone H3 (C-ter) Antibody (diluted to 3 nM final) (Catalog #AL118 Perkin Elmer; Waltham, Mass.) was added in each well. Dilution of the acceptor beads and anti-Histone H3 was done in 1× Histone Detection buffer (Catalog #AL009F3 Perkin Elmer; Waltham, Mass.) which was produced by diluting the 10× stock provided. The plate was sealed with an aluminum plate sealer and incubated at 23° C. for 60 min. Next, 10 μL 5× solution of Streptavidin Donor beads were added (Catalog #6760002 Perkin Elmer; Waltham, Mass.) (20 μg/mL final in 1× Histone Detection Buffer), =plate was sealed with Aluminum plate sealer and incubated at 23° C. for 30 min. The plates were then read using an EnVision-Alpha Reader (model #2104 Perkin Elmer; Waltham, Mass.). […]

[3] = test system: Karpas-422 cell lines; assay: Karpas-422 viability assay (Cell Titer-Glo, Day 8); type: cell-based; conditions: Homo sapiens, KARPAS-422, 192 h, Cell Titer-Glo on Day 8
Method: Karpas-422 cell lines were obtained from DSMZ (Braunschweig, Germany) and were grown in RPMI-1640 media. All media contained 10% fetal bovine serum (FBS) and 1% penicillin/streptomycin (Invitrogen). 20K cells per well were plated onto 96 well compound coated plates. Cells were split and seeded at original plating density (based on the DMSO well counts) every 4 days into plates containing fresh EZH2 inhibitors. Relative cell numbers were assessed by Cell Titer-Glo luminescent cell viability assay (Promega) on Day 8. GraphPad Prism 5 was used for curve fitting and GI50 values were reported.

[4] = biological target: T1, PRC2 containing wt EZH2; assay: EZH2 biochemical assay (IC50), 3H-SAM incorporation into biotinylated H3 peptide; conditions: 30 pM PRC2 with wt EZH2, 3-5 h pre-incubation
Method: EZH2 biochemical assay (IC50): Compound potencies were assessed through incorporation of ^3H-SAM into a biotinylated H3 peptide. Specifically, 30 pM PRC2 containing wt EZH2 (pentameric complex prepared in-house) was pre-incubated with 450 nM SAM, 450 nM ^3H-SAM, 2 μM H3K27me3 activating peptide (H2N-RKQLATKAAR(Kme3)SAPATGGVKKP-amide) and compounds (as 10 point duplicate dose response titrations in DMSO, final assay 0.8% DMSO (v/v)) for 3-5 h in 50 mM Tris (pH 8.5), 1 mM DTT, 0.07 mM Brij-35, 0.1% BSA, and 0.8% DMSO in a total volume of 12.5 μl. Reaction was initiated with biotinylated H3 substrate peptide (H2N-RKQLATKAAR(Kmel)SAPATGGVKKP-NTPEGBiot) as a 2 μM stock in 12.5 μl of buffer and allowed to react at room temperature for 18-22 h. Quenching was accomplished by addition of 20 μl of STOP solution (50 mM Tris (pH 8.5), 200 mM EDTA, 2 mM SAH). 35 μl of the quenched solution was transferred to streptavidin coated FlashPlates (PerkinElmer), incubated 1-2 h, washed, and read in a TopCount Reader (PerkinElmer). IC50s were calculated in Genedata Screener using non-linear least square four parameter fits, where the four parameters were IC50, Hill slope, pre-transitional baseline (0% INH), and post-transitional baseline (100% INH).

[5] = recovery of enzyme activity after 100-fold dilution, read-out: EZH2 residence time (converted)

T1 sequence (Q15910 whole entry): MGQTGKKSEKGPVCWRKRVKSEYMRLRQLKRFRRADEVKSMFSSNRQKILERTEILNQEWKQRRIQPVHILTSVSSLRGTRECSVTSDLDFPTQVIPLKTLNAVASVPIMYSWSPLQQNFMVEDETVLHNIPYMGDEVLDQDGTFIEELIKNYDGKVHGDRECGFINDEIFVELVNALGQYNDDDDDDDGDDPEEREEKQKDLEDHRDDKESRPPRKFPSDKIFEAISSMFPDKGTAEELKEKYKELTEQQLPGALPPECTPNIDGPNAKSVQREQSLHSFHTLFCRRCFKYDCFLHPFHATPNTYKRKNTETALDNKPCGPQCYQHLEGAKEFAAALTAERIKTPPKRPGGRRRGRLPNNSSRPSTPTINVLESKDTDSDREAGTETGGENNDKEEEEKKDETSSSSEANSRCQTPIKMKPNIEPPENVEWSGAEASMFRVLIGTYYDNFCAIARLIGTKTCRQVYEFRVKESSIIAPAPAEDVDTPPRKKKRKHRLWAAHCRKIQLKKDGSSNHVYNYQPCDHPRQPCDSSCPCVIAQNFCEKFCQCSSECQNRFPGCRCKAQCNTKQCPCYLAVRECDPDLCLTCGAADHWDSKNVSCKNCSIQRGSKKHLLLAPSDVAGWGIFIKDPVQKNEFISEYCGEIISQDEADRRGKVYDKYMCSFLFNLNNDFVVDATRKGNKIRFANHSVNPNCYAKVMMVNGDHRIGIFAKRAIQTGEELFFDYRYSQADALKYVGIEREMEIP
T1 sequence (O75530 whole entry partner): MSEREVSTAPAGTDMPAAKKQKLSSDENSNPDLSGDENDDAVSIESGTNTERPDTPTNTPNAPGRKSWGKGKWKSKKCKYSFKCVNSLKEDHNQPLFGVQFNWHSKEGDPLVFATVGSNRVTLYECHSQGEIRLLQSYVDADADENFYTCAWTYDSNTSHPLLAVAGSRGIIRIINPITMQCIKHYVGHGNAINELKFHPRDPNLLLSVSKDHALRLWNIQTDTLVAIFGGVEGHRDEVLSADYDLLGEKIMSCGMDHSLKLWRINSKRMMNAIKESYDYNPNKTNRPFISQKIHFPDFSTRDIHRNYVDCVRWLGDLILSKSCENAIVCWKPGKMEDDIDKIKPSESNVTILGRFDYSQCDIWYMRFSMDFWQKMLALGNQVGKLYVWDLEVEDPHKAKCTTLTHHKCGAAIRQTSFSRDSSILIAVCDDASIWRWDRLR
T1 sequence (Q15022 whole entry partner): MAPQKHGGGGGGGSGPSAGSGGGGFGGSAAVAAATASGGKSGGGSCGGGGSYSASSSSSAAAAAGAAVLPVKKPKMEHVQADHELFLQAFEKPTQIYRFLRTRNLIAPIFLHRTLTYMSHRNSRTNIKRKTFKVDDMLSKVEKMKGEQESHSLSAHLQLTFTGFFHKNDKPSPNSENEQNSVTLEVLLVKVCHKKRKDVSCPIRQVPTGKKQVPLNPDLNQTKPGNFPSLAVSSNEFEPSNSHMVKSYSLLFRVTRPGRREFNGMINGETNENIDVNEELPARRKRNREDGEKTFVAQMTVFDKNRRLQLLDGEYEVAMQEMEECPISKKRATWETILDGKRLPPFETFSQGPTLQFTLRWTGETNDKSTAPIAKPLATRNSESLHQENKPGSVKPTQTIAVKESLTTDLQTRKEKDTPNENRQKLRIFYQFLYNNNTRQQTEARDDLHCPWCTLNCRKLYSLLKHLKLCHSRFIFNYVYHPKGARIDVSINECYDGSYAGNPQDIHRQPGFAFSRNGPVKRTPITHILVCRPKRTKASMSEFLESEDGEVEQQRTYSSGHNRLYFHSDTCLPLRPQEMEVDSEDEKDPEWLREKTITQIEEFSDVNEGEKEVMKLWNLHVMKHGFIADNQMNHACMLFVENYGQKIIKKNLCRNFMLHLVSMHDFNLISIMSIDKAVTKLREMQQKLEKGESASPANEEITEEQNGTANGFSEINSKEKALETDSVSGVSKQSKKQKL
T1 sequence (Q09028 whole entry partner): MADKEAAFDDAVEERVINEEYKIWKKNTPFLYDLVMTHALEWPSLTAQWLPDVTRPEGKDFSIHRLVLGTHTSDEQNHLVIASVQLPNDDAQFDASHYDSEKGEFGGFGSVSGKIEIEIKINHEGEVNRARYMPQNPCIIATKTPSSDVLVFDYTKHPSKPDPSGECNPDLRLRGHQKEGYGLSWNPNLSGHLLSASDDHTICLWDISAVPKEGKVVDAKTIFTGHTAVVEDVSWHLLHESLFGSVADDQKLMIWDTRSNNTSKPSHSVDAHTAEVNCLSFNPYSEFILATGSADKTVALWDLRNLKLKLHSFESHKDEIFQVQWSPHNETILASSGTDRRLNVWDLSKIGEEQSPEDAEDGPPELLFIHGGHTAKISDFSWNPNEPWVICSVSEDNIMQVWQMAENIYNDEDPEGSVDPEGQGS
T1 sequence (Q6ZN18 whole entry partner): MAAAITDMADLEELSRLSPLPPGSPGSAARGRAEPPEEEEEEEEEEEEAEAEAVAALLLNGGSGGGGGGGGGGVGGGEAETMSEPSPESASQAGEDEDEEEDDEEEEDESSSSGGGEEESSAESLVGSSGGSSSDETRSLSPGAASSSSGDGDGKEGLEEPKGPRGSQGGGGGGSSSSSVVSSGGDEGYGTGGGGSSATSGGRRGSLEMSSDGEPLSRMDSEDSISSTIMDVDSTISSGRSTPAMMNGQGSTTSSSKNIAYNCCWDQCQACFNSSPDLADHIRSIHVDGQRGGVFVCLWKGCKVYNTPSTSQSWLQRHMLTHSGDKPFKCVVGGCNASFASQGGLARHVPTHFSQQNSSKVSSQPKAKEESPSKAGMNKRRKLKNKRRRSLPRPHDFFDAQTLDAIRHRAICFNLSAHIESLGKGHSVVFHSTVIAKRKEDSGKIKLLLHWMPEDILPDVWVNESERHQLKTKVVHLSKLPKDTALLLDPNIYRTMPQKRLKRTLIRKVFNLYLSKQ

| SMILES | residence time [1, 5] [min] | pEC50 [2] | GI50 [3] [nM] | pIC50 [4] | residence time ([1]; read-out: EZH2 residence time) [min] |
| --- | --- | --- | --- | --- | --- |
| CSc1cc(C)[nH]c(=O)c1CNC(=O)c1cc(Cl)c2c(c1C)OC(C)(C1CCC(N3CC(OC4CC4)C3)CC1)O2 (single isomer, unassigned) [Example 9] | > 6000 | 9.21 | 3.7 | 10.27 |  |
| Cc1cc(Cl)c(CNC(=O)c2cc(Cl)c3c(c2C)OC(C)(C2CCC(N4CC(OC(F)F)C4)CC2)O3)c(=O)[nH]1 (single isomer, unassigned) [Example 13] | 2880 | 9.09 | 9.7 | 10.08 |  |
| CSc1cc(C)[nH]c(=O)c1CNC(=O)c1cc(Cl)c2c(c1C)OC(C)(C1CCC(N3CC(OC(F)F)C3)CC1)O2 (single isomer, unassigned) [Example 1, 7-chloro-2-(4-(3-(difluoromethoxy)azetidin-1-yl)cyclohexyl)-2,4-dimethyl-N-((6-methyl-4-(methylthio)-2-oxo-1,2-dihydropyridin-3-yl)methyl)benzo[d][1,3]dioxole-5-carboxamide] |  | 9.28 | 3.9 | 10.04 | > 6000 |

Further molecules by rising pEC50 [2], results first:

| residence time [1, 5] [min] | pEC50 [2] | GI50 [3] [nM] | pIC50 [4] | SMILES | residence time ([1]; read-out: EZH2 residence time) [min] |
| --- | --- | --- | --- | --- | --- |
| 2220 | 8.72 | 20 | 9.69 | CSc1nc(C)[nH]c(=O)c1CNC(=O)c1cc(Cl)c2c(c1C)OC(C)(C1CCC(N3CC(OC(F)F)C3)CC1)O2 (single isomer, unassigned) [Example 10] |  |
| > 6000 | 9.23 | 4.4 | 10.04 | CSc1cc(C)[nH]c(=O)c1CNC(=O)c1cc(Cl)c2c(c1C)OC(C)(C1CCC(N3CC(F)C3)CC1)O2 (single isomer, unassigned) [Example 12] |  |
| > 6000 | 9.28 | 5 | 10.41 | Cc1cc(Cl)c(CNC(=O)c2cc(Cl)c3c(c2C)OC(C)(C2CCC(N4CC(OC5CC5)C4)CC2)O3)c(=O)[nH]1 (single isomer, unassigned) [Example 8, 7-chloro-N-((4-chloro-6-methyl-2-oxo-1,2-dihydropyridin-3-yl)methyl)-2-(4-(3-cyclopropoxyazetidin-1-yl)cyclohexyl)-2,4-dimethylbenzo[d][1,3]dioxole-5-carboxamide] |  |
| > 6000 | 9.48 | 3.5 | 10.37 | COC1CN(C2CCC(C3(C)Oc4c(Cl)cc(C(=O)NCc5c(SC)cc(C)[nH]c5=O)c(C)c4O3)CC2)C1 (single isomer, unassigned) [Example 17, 7-chloro-2-(4-(3-methoxyazetidin-1-yl)cyclohexyl)-2,4-dimethyl-N-((6-methyl-4-(methylthio)-2-oxo-1,2-dihydropyridin-3-yl)methyl)benzo[d][1,3]dioxole-5-carboxamide] |  |

From patent US11274095B2, “Modulators of methyl modifying enzymes, compositions and uses thereof” (Constellation Pharmaceuticals, Inc., priority 2018, dated 2022)
